Laboratory results taken from patent US20240390377A1, “COMPOSITION FOR THE PREVENTION OR TREATMENT OF NEURODEGENERATIVE OR MOTOR NEURON DISEASES COMPRISING HALOFUGINONE AS AN ACTIVE INGREDIENT” (CURAMYS CO., LTD., priority 2022, published 2024).

Legend:
[1] = tested on: G93A mutant SOD1 transgenic mice; assay: ALS animal model disease progression, survival and motor function (rotarod) analysis; assay type: in vivo, mouse
Experimental: Specifically, all animal experiments were conducted according to the guidelines of the Animal Care Committee of Seoul National University Animal Hospital (IACUC, approval number SNU-200220-1-2). Transgenic mice expressing the human G93A mutant SOD1 gene (B6SJL-Tg(SOD1-G93A) 1 Gur/J) as an ALS animal model were purchased from Jackson Laboratory (Bar Harbor, ME, USA). Male transgenic ALS mice expressing mtSOD1(G93A) H1 strain (Jackson Laboratories, Bar Harbor, ME, USA) were crossed with female mice (B6/SJLF1). The mice were housed under standard conditions with a constant temperature of 22±1° C., relative humidity of 40%, and a 12-hour light-dark cycle, with ad libitum access to food and water. Genotypes were confirmed by polymerase chain reaction (PCR) using primers shown in [Table 1] below, and the number of transgene copies was confirmed. Next, G93A mutant SOD1 transgenic mice were divided into three stages: 60 days old (asymptomatic), 90 days old (early symptom), and 120 days old (late symptom) depending on the time point. A total of 96 mice were used in the experiment. As a control group, non-transgenic mice were used.
As a control group, non-transgenic mice were injected intraperitoneally (i.p.) with vehicle (DMSO) in the same manner for the same period of time.
Specifically, the clinical condition and body weight of the mice in Example 6 were assessed three times a week starting from day 83 post-birth. Disease onset was defined as tremor of the limbs when the mouse's tail was suspended in the air, reported to be clinically associated with upper motor neuron system [S. Nagano, Y. Fujii, T. Yamamoto, M. Taniyama, K. Fukada, T. Yanagihara, et al. The efficacy of trientine or ascorbate alone compared to that of the combined treatment with these two agents in familial amyotrophic lateral sclerosis model mice Exp Neurol, 179 (2003), pp. 176-180]. The endpoint age was determined as the inability of the animal to right itself within 30 seconds after being placed on a flat surface on its side. At this point, the mouse was considered deceased [C. Zheng, I. Nennesmo, B. Fadeel, J. I. Henter Vascular endothelial growth factor prolongs survival in a transgenic mouse model of ALS Ann Neurol, 56 (2004), pp. 564-567]. The motor function of mice was assessed using a rotarod apparatus (JD-A-07M, JEUNG DO BIO & PLANT CO., LTD). Mice were trained for one week prior to recording. The mice were placed on a rotarod that started at a speed of 4 rpm and accelerated up to 40 rpm over 300 seconds, increasing by 1 rpm approximately every 8.3 seconds. The rotarod test was measured on average three times per measurement, three times per week from 83 days of age, until it was not possible to stay in rotarod for more than 10 seconds three consecutive times.
All data were expressed as the mean and the standard error of the mean (SEM) based on at least three independent experiments and as the ratio of control values. The significance of differences between groups was analyzed by Student's t-test or one-way ANOVA followed by Tukey's post host comparison. A p-value of <0.05 was considered statistically significant. The cumulative probability of symptom onset, rotarod failure, and disease endpoint was analyzed using a Kaplan Meier curve. All analyses were performed using GraphPad Prism. […]

C2C12 cells = assay: Immunocytochemical analysis of TGF-β1-stimulated C2C12 myoblasts; assay type: cell-based, mouse; conditions: low or high concentration halofuginone after TGF-β1 stimulation (FIG. 4c)
Experimental: Specifically, C2C12 cells were plated in 6-well plates with coverslips and stimulated with rhTGF-β1 in serum-free medium. After 24 hours of stimulation, the cells were treated with low or high concentrations of halofuginone in serum-free medium for 24 hours. The cells were washed three times with PBS and fixed in 4% paraformaldehyde at room temperature for 15 minutes. The fixed cells were then washed three times with PBS and treated with 0.5% Triton X-100 for 5 minutes. Subsequently, they were blocked with 5% bovine serum albumin in 0.3% PBS-T for 1 hour at room temperature. The cells were incubated with anti-α-SMA antibody (1:200; abcam cat #ab7817) and anti-MyoD antibody (1:200; Santa Cruz, cat #sc377460) in blocking buffer at 4° C. for 24 hours. After washing three times with PBS, the cells were incubated with Alexa Fluor secondary antibodies at room temperature for 1 hour. Nuclear DNA was stained with DAPI (4,6-diamino-2-phenylindole, 1:1,000; Sigma), washed twice with PBS, and coverslips were mounted on glass slides using a Dako fluorescence mounting medium (Dako). […] In addition, it was quantified in a blind manner using Leica Application Suite X software (Leica Microsystems). […]

[2] = 250 μg/kg i.p. three times a week from 10 weeks of age, Hal TG vs DMSO TG group (FIG. 6a)

O=C(C[C@H]1NCCC[C@@H]1O)Cn1cnc2cc(Br)c(Cl)cc2c1=O (racemic) [halofuginone]
body weight [1, 2]: no significant difference | time in the rotarod [1, 2]: significantly longer | onset of symptoms ([1]; 250 μg/kg i.p. three times a week, mean±SD, DMSO TG group 94.2±5.7): 113±3.6 | age of reaching rotarod failure ([1]; 250 μg/kg i.p. three times a week, mean±SD, DMSO TG group 116.5±3.1, p<0.001): 124.3±3.5 | endpoint age ([1]; 250 μg/kg i.p. three times a week, mean±SD, DMSO TG group 129.3±7.6): 141.8±9.8 | intensity of MyoD (immunofluorescence) (C2C12 cells): recovery | intensity of α-SMA (immunofluorescence) (C2C12 cells): reduction
